Measurements as given in patent US5891620A, “Steroid sulfatase assay” (Imperial College of Science, Technology and Medicine, priority 1994, dated 1999).

System: Oestrone sulphatase activity in human white blood cells
Experiment: Oestrone sulphatase activity in white blood cells of volunteers after an oral dose of inhibitor
Format: in vivo
Settings: two healthy male volunteers; single oral dose 0.5 mg/Kg; white blood cells from blood samples taken for up to 28 days
Experimental: Purified leukocytes (according to Tulchinsky JCEM 65, 1026, 1987) from 10 ml whole blood are suspended in 1 ml PBS-sucrose. 0.2 ml of this is used for EST assay as above (incubated for 2 hr at 37° C. in a final volume of 1 ml).
After incubation, samples are extracted with 4 ml toluene. 2 ml of this is counted in 10 ml Scintillant.
The assay of the present invention, as described above, was investigated using two healthy, male volunteers whom received an oral dose of a steroid sulphatase inhibitor (Oestrone-3-O-sulphamate, 0.5 mg/Kg). In this regard, white blood cells were prepared from blood samples obtained from the subjects for up to 28 days. […] The results from this study confirm that the measurement of Oestrone Sulphatase activity in white blood cells will therefore allow the extent and duration of sulphatase inhibition to be monitored in subjects receiving steroid sulphatase inhibitors therapeutically. More details and results of these studies are shown in the attached FIG. 30. […] In particular, the assay of the present invention allows one to measure oestrone sulphatase activity in human white blood cells to monitor the extent of oestrone sulphatase inhibition.

C[C@]12CC[C@@H]3c4ccc(OS(N)(=O)=O)cc4CC[C@H]3[C@@H]1CCC2=O [Oestrone-3-O-sulphamate]
inhibition of Oestrone sulphatase activity in white blood cells: significant inhibition
